Holding throughout (assay type): biochemical
One experiment addresses T1, Aurora A kinase (Homo sapiens, UniProt O14965).
T1 construct: purchased Upstate
T1 sequence (O14965 1-403): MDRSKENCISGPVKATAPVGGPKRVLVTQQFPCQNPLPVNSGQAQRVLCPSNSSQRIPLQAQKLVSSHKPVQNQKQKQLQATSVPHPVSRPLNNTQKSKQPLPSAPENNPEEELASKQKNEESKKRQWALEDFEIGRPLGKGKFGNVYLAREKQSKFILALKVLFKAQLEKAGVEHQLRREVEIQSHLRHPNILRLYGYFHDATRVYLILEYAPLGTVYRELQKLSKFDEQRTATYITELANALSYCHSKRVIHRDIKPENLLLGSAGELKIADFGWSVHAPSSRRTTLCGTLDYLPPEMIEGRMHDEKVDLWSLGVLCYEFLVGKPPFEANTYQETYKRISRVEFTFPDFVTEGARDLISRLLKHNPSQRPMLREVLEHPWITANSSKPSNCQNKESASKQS
The experiment can be described thus: Aurora A kinase assay ([γ-33P]ATP, CHOCKtide substrate). The settings on record: for inhibition at 1 µM: 1.0 μM test compound. On the procedure: (§1) Inhibition of Aurora Kinase by the compounds disclosed herein was determined by incubating Aurora kinase, substrate, and a test compound together for a period of time followed by quantifying the resultant phosphorylated product. Specifically, in a well of a 96-well round bottom plate, 25 μL of a reaction mixture containing (1) a test compound disclosed herein (diluted from 9 μM to the desired final concentration), [γ-33P]ATP/ATP mix (10 μM), CHOCKtide (1 μg, Genesis Biotech Inc.), and Aurora-A (1 ng, purchased from Upstate); or (2) a test compound disclosed herein (diluted from 9 μM to the desired final concentration), [γ-33P]ATP/ATP mix (40 μM), CHOCKtide (1 μg, Genesis Biotech Inc.), and Aurora-B (2.5 ng, purchased from Cell signaling); was prepared and incubated at 33° C. for 30 minutes. The reaction was then stopped by adding 5 μL of 3% phosphoric acid. The resultant solution (30 μL) was later harvested by a UniFilter Plate GF/B (PerkinElmer) followed by adding 30 μL of the scintillation cocktail (MicroScint 20, PerkinElmer) to the well. The radioactivity retained on the filter membrane was measured by a luminescence counter (PerkinElmer). IC50 value is defined as the concentration of the test compound which achieves a half-maximal inhibition of the kinase activity.

For the next experiment, the target named is T2, Aurora B kinase (Homo sapiens, UniProt Q96GD4).
T2 construct: purchased Cell signaling
T2 sequence (Q96GD4 whole entry): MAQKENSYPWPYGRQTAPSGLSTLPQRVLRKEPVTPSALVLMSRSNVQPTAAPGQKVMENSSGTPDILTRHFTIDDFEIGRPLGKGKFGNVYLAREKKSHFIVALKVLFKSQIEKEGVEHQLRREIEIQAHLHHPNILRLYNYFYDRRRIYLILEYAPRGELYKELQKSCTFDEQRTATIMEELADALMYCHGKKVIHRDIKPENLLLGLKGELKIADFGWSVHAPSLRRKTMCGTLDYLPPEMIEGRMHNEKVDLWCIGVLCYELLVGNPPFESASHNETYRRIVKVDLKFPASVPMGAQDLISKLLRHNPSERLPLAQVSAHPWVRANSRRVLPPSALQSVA
The experiment can be described thus: Aurora B kinase assay ([γ-33P]ATP, CHOCKtide substrate). To be noted: for inhibition at 1 µM: 1.0 μM test compound. On the procedure:
as §1

The next experiment concerns the target T3, c-Met kinase (Homo sapiens, UniProt P08581).
T3 construct: recombinant N-terminal 6×His-tagged c-Met kinase domain construct expressed from baculovirus; 6xHis (N); made in house
The experiment can be described thus: c-Met kinase assay (33P incorporation into Poly(Glu-Tyr)). The settings on record: 500 nM test compound. On the procedure: Inhibition of c-Met kinase activity by compounds disclosed herein was quantified by measuring the amount of [^33P] incorporated into the substrate in the presence of a test compound. Briefly, a reaction mixture of 25 μL final volume containing 5 ng of c-Met kinase (obtained by purifying recombinant N-terminal 6×His-tagged c-Met kinase domain construct expressed from baculovirus), 1 μg of the substrate (Poly (Glu-Tyr, 4:1, Sigma)), kinase reaction buffer (20 mM MOPS pH 7.0, 1 mM EDTA, 5% glycerol, 0.01% Brij-35, 0.1% β-mercaptoethanol, 1 mg/mL BSA, 100 μM ATP, 0.1 μCi per well [^33P]-γ-ATP (2,500-3,000 Ci/mmol)), and a test compound (500 nM, diluted with 4% DMSO) or DMSO (as the control) was incubated at 30° C. for 30 minutes. The reaction was stopped by adding 5 μL of 3% phosphoric acid solution. The resultant reaction solution was then harvested onto a filter plate (UniFilter-96 GF/B, PerkinElmer), washed 20 times for 5 min with d.d. H2O, and followed by the addition of 30 μL of MicroScint™-20 Cocktail (PerkinElmer). The plate was then sealed and counted using a TopCount scintillation detector (PerkinElmer). The percentage of inhibition rate of the test compound was calculated by dividing the retained radioactivity of the test sample with the retained radioactivity of the control sample and shown in Table 3.

The values below come from patent US7897602B2, “Indolinone compounds as kinase inhibitors” (Development Center for Biotechnology, priority 2009, dated 2011).

T3 sequence (P08581 1078-1345 limits assumed): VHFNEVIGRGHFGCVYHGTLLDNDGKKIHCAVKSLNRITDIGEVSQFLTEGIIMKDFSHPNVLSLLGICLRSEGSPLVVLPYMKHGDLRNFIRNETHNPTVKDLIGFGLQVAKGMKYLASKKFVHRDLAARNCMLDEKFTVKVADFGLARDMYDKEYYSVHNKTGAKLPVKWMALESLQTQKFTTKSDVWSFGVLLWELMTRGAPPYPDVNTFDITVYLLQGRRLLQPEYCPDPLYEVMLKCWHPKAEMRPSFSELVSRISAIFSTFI

Consider `CC1(C)CC(=O)c2c([nH]c(/C=C3\C(=O)Nc4ccc(S(=O)(=O)N5CCc6ccccc65)cc43)c2CCC(=O)O)C1` [DCB-70161, (Z)-3-(2-((5-(indolin-1-ylsulfonyl)-2-oxoindolin-3-ylidene)methyl)-6,6-dimethyl-4-oxo-4,5,6,7-tetrahydro-1H-indol-3-yl)propanoic acid], for which the inhibition (as a rule, the percentage by which the read-out fell short of the control) at 1 µM was 78.8% on Aurora A kinase and 14.6% against Aurora B kinase. Moreover, the inhibition at 0.5 µM against c-Met kinase stood at 59.7%.

In the case of `CCOC(=O)CCc1c(/C=C2\C(=O)Nc3ccc(NC(=O)Nc4ccc(Cl)cc4Cl)cc32)[nH]c2c1C(=O)CCC2` [DCB-70184, (Z)-ethyl 3-(2-((5-(3-(2,4-dichlorophenyl)ureido)-2-oxoindolin-3-ylidene)methyl)-4-oxo-4,5,6,7-tetrahydro-1H-indol-3-yl)propanoate], the inhibition at 1 µM turned out to be 6.6% against Aurora A kinase and 6.8% at Aurora B kinase. Besides, the inhibition at 0.5 µM against c-Met kinase came out at 8.7%.

As to `CCN(CC)CCCc1c(/C=C2\C(=O)Nc3ccc(S(=O)(=O)Cc4c(Cl)cccc4Cl)cc32)[nH]c2c1C(=O)CCC2` [DCB-70222, (Z)-5-(2,6-dichlorobenzylsulfonyl)-3-((3-(3-(diethylamino)propyl)-4-oxo-4,5,6,7-tetrahydro-1H-indol-2-yl)methylene)indolin-2-one], the inhibition at 1 µM was 95.7% at Aurora A kinase and 83.2% on Aurora B kinase. The compound also had an inhibition at 0.5 µM against c-Met kinase of 95.6%.

Turning to `CNC(=O)CCc1c(/C=C2\C(=O)Nc3ccc(S(=O)(=O)Cc4c(Cl)cccc4Cl)cc32)[nH]c2c1C(=O)CCC2` [DCB-70157, (Z)-3-(2-((5-(2,6-dichlorobenzylsulfonyl)-2-oxoindolin-3-ylidene)methyl)-4-oxo-4,5,6,7-tetrahydro-1H-indol-3-yl)-N-methylpropanamide], the inhibition at 1 µM was determined as 13% on Aurora A kinase and 6.9% against Aurora B kinase. For the same compound, at c-Met kinase, 0.5 µM produced 85.6% inhibition.

For the compound `CN1CCN(C(=O)CCc2c(/C=C3\C(=O)Nc4ccc(NS(=O)(=O)c5ccccc5)cc43)[nH]c3c2C(=O)CCC3)CC1` [DCB-70218, (Z)-N-(3-((3-(3-(4-methylpiperazin-1-yl)-3-oxopropyl)-4-oxo-4,5,6,7-tetrahydro-1H-indol-2-yl)methylene)-2-oxoindolin-5-yl)benzenesulfonamide], the IC50 (as a rule, the concentration needed to halve the response being measured) on Aurora A kinase stood at 823 nM. Also, the inhibition at 1 µM against Aurora A kinase was found to be 62%; against Aurora B kinase, 54.2%. This compound registered an inhibition at 0.5 µM on c-Met kinase of 9.2%.

As to `CC(=O)c1c(C)[nH]c(/C=C2\C(=O)Nc3ccc(F)cc32)c1CCC(=O)N1CCN(C)CC1` [DCB-70207, (Z)-3-((4-acetyl-5-methyl-3-(3-(4-methylpiperazin-1-yl)-3-oxopropyl)-1H-pyrrol-2-yl)methylene)-5-fluoroindolin-2-one], the values for the inhibition at 1 µM at Aurora A kinase and on Aurora B kinase were 10.3% and 6.8%, respectively. At c-Met kinase, this compound had an inhibition at 0.5 µM of 21.1%.

With `O=C(O)CCc1c(/C=C2\C(=O)Nc3ccc(NS(=O)(=O)c4cc(Cl)cc(Cl)c4)cc32)[nH]c2c1C(=O)CCC2` [DCB-70194, (Z)-3-(2-((5-(3,5-dichlorophenylsulfonamido)-2-oxoindolin-3-ylidene)methyl)-4-oxo-4,5,6,7-tetrahydro-1H-indol-3-yl)propanoic acid], the midpoint of inhibition against Aurora A kinase, the IC50, lay at 151 nM. The results for the inhibition at 1 µM at Aurora A kinase and against Aurora B kinase were 85.3% and 41.7%, respectively. This compound yielded an inhibition at 0.5 µM against c-Met kinase of 12.9%.

With `CC(=O)c1c(C)[nH]c(/C=C2\C(=O)Nc3ccc(NS(=O)(=O)c4ccccc4)cc32)c1CCC(=O)N1CCN(C)CC1` [DCB-70219, (Z)-N-(3-((4-acetyl-5-methyl-3-(3-(4-methylpiperazin-1-yl)-3-oxopropyl)-1H-pyrrol-2-yl)methylene)-2-oxoindolin-5-yl)benzenesulfonamide], the inhibition at 1 µM on Aurora A kinase turned out to be 25.7%; at Aurora B kinase, 14.8%. Moreover, at c-Met kinase, at 0.5 µM the inhibition was 17.7%.

In the case of `CCOC(=O)CCc1c(/C=C2\C(=O)Nc3ccc(S(=O)(=O)Cc4c(Cl)cccc4Cl)cc32)[nH]c2c1C(=O)CCC2` [DCB-70209, (Z)-ethyl 3-(2-((5-(2,6-dichlorobenzylsulfonyl)-2-oxoindolin-3-ylidene)methyl)-4-oxo-4,5,6,7-tetrahydro-1H-indol-3-yl)propanoate], the inhibition at 1 µM at Aurora A kinase is 22.7%; on Aurora B kinase it was 16.3%. The inhibition at 0.5 µM against c-Met kinase amounted to 92.1%.

`CCCCCCC#Cc1ccc2c(c1)NC(=O)/C2=C\c1[nH]c2c(c1CCC(=O)OCC)C(=O)CCC2` [DCB-70170, (Z)-ethyl 3-(2-((6-(oct-1-ynyl)-2-oxoindolin-3-ylidene)methyl)-4-oxo-4,5,6,7-tetrahydro-1H-indol-3-yl)propanoate]: the inhibition at 1 µM against Aurora A kinase was determined as 10.5%; against Aurora B kinase, 2.8%. Also, the inhibition at 0.5 µM at c-Met kinase turned out to be 13.1%.

Consider `CCOC(=O)CCc1c(/C=C2\C(=O)Nc3ccc(NC(C)c4ccccc4)cc32)[nH]c2c1C(=O)CCC2` (stereo not shown) [DCB-70179, (Z)-ethyl 3-(4-oxo-2-((2-oxo-5-(1-phenylethylamino)indolin-3-ylidene)methyl)-4,5,6,7-tetrahydro-1H-indol-3-yl)propanoate], for which the inhibition at 1 µM against Aurora A kinase came out at 59.9%; against Aurora B kinase, 40.1%. This compound returned an inhibition at 0.5 µM against c-Met kinase of 17.9%.

As to `CCOC(=O)CCc1c(/C=C2\C(=O)Nc3ccc(NS(=O)(=O)c4ccccc4)cc32)[nH]c2c1C(=O)CC(C)(C)C2` [DCB-70168, (Z)-ethyl 3-(6,6-dimethyl-4-oxo-2-((2-oxo-5-(phenylsulfonamido)indolin-3-ylidene)methyl)-4,5,6,7-tetrahydro-1H-indol-3-yl)propanoate], the inhibition at 1 µM at Aurora A kinase came to 53.4%; against Aurora B kinase it was 30.6%. Further, at 0.5 µM the inhibition at c-Met kinase was 12.7%.

In the case of `CC(=O)c1c(C)[nH]c(/C=C2\C(=O)Nc3ccc(S(=O)(=O)N4CCc5ccccc54)cc32)c1CCC(=O)N1CCN(C)CC1` [DCB-70206, (Z)-3-((4-acetyl-5-methyl-3-(3-(4-methylpiperazin-1-yl)-3-oxopropyl)-1H-pyrrol-2-yl)methylene)-5-(indolin-1-ylsulfonyl)indolin-2-one], the figures for the inhibition at 1 µM against Aurora A kinase and at Aurora B kinase were 37.4% and 21.1%, respectively. In addition, the inhibition at 0.5 µM at c-Met kinase is 77.4%.

At Aurora A kinase, `CCOC(=O)CCc1c(/C=C2\C(=O)Nc3ccc(NS(=O)(=O)c4cc(F)cc(F)c4)cc32)[nH]c2c1C(=O)CCC2` [DCB-70189, (Z)-ethyl 3-(2-((5-(3,5-difluorophenylsulfonamido)-2-oxoindolin-3-ylidene)methyl)-4-oxo-4,5,6,7-tetrahydro-1H-indol-3-yl)propanoate] registered a 50% inhibitory concentration (IC50) of 77.9 nM and an inhibition at 1 µM of 91.4%. At Aurora B kinase, this compound displayed a half-maximal inhibitory concentration (IC50) of 177 nM and an inhibition at 1 µM of 84%. In addition, on c-Met kinase, the inhibition at 0.5 µM came to 14%.

For `CCN(CC)CCNC(=O)CCc1c(/C=C2\C(=O)Nc3ccc(S(=O)(=O)N4CCc5ccccc54)cc32)[nH]c(C)c1C(C)=O` [DCB-70214, (Z)-3-(4-acetyl-2-((5-(indolin-1-ylsulfonyl)-2-oxoindolin-3-ylidene)methyl)-5-methyl-1H-pyrrol-3-yl)-N-(2-(diethylamino)ethyl)propanamide], the inhibition at 1 µM at Aurora A kinase is 15.4%; on Aurora B kinase it was 14.8%. Testing at 0.5 µM on c-Met kinase gave an inhibition of 56.3%.
